In assay [1] the test system is Streptococcus Group D X66. As to the kind of experiment: MIC, standard agar-dilution assay, Streptococcus Group D X66. The assay is classed as cell-based. Particulars: Streptococcus Group D X66, agar dilution. Background: Agar dilution tests growth on a series of plates holding different concentrations.
Assay [2] has as its system Staphylococcus aureus V41. As to the kind of experiment: MIC, standard agar-dilution assay, Staphylococcus aureus V41. The class given is cell-based.
Assay [3] relates to Pasteurella multocida. As to the kind of experiment: Subcutaneous treatment of Pasteurella multocida-infected chicks. The assay is classed as in vivo, one-day-old chicks. As to conditions: 30 mg/kg × 2, 1 and 4 hours post-challenge. How it is done: (§1) Many of the C-20 modified derivatives of this invention have also shown in vivo antibacterial activity against infections induced by gram-negative bacteria. Tables XII and XIII summarize the results of tests in which illustrative compounds were evaluated against Pasteurella infection in one-day-old chicks. The compounds were administered parenterally or orally after challenge of the chicks with Pasteurella multocida (0.1 ml of a 10^-4 dilution of a twenty-hour tryptose broth culture of an avian P. multocida given subcutaneously). In these tests, unless indicated otherwise, all non-medicated infected chicks died within 24 hours of Pasteurella challenge. In the tests summarized in Table XII the compounds were administered by subcutaneous injection at a dosage of 30 mg/kg, 1 and 4 hours post-challenge of the chicks with P. multocida. In the test summarized in Table XIII the compounds were administered by gavage at 1 and 5 hours post-challenge of the chicks with P. multocida.

The next assay has as its system Streptococcus Group 9960. As to the kind of experiment: MIC, standard agar-dilution assay, Streptococcus Group 9960. As to conditions: Streptococcus Group 9960; agar dilution. The class given is cell-based.
Assay [4] has as its system Haemophilus influenzae Holt. As to the kind of experiment: MIC, standard agar-dilution assay, Haemophilus influenzae Holt. As to conditions: Haemophilus influenzae Holt; ampicillin-sensitive strain; agar dilution. The assay is classed as cell-based.
Assay [5] deals with Streptococcus pyogenes C203. As to the kind of experiment: In vivo protection of mice experimentally infected with S. pyogenes C203. Particulars: mice, doses given 1 and 4 hours post-infection; for ED50: Streptococcus pyogenes. Here is the method: The C-20 modified derivatives of this invention have shown in vivo antimicrobial activity against experimentally-induced infections in laboratory animals. When two doses of test compound were administered to mice experimentally infected with S. pyogenes C203, the activity observed was measured as an ED50 value [effective dose in mg/kg to protect 50% of the test animals: see Warren Wick, et al., J. Bacteriol. 81, 233-235 (1961)].

In the next assay the test system is Staphylococcus aureus. As to the kind of experiment: MIC, broth-dilution microtiter test, Staphylococcus aureus. The assay is classed as cell-based. From the text:
(§2) The MIC's in Table X were obtained using conventional broth-dilution microtiter tests.

The subject of assay [6] is Streptococcus pyogenes C203. As to the kind of experiment: MIC, standard agar-dilution assay, Streptococcus pyogenes C203. The class given is cell-based. As to conditions: Streptococcus pyogenes C203, agar dilution.
The test system of assay [7] is Staphylococcus epidermidis EPI2. As to the kind of experiment: MIC, standard agar-dilution assay, Staphylococcus epidermidis EPI2. The class given is cell-based.
In assay [8] the test system is Streptococcus pneumoniae Park I. As to the kind of experiment: microbe, parasite or virus in culture. The class given is cell-based.
Assay [9] has as its system Staphylococcus aureus S13E. As to the kind of experiment: MIC, standard agar-dilution assay, Staphylococcus aureus S13E. Particulars: Staphylococcus aureus S13E; agar dilution. The assay is classed as cell-based.
The next assay concerns Mycoplasma gallisepticum. As to the kind of experiment: MIC, broth-dilution microtiter test, Mycoplasma gallisepticum. The class given is cell-based.
Description: as §2

In assay [10] the test system is Staphylococcus aureus X1.1. The experiment in a line: MIC, standard agar-dilution assay, Staphylococcus aureus X1.1. The assay is classed as cell-based. As to conditions: Staphylococcus aureus X1.1, agar dilution.
The subject of assay [11] is Haemophilus influenzae R252. As to the kind of experiment: MIC, standard agar-dilution assay, Haemophilus influenzae R252. The class given is cell-based. As to conditions: Haemophilus influenzae R252, ampicillin-resistant strain.
Assay [12] relates to Pasteurella multocida 17E. As to the kind of experiment: MIC, broth-dilution microtiter test, Pasteurella multocida 17E. The assay is classed as cell-based. As to conditions: Pasteurella multocida 17E, bovine isolate, broth-dilution microtiter.
Description: as §2

For another assay, the system named is Mycoplasma hyopneumoniae. The experiment in a line: MIC, broth-dilution microtiter test, Mycoplasma hyopneumoniae. The assay is classed as cell-based. Particulars: Mycoplasma hyopneumoniae, broth-dilution microtiter.
Description: as §2

For a further assay, the system named is Mycoplasma hyorhinis. As to the kind of experiment: MIC, broth-dilution microtiter test, Mycoplasma hyorhinis. The assay is classed as cell-based.
Description: as §2

The test system of assay [13] is Staphylococcus epidermidis EPI1. As to the kind of experiment: MIC, standard agar-dilution assay, Staphylococcus epidermidis EPI1. Particulars: Staphylococcus epidermidis EPI1, agar dilution. The class given is cell-based.
The subject of assay [14] is Pasteurella multocida 60A. As to the kind of experiment: MIC, broth-dilution microtiter test, Pasteurella multocida 60A. The assay is classed as cell-based. As to conditions: Pasteurella multocida 60A, avian isolate, broth-dilution microtiter.
Description: as §2

For a further assay, the system named is Mycoplasma synoviae. As to the kind of experiment: MIC, broth-dilution microtiter test, Mycoplasma synoviae. The class given is cell-based.
Description: as §2

Assay [15] relates to Staphylococcus aureus X400. The experiment in a line: MIC, standard agar-dilution assay, Staphylococcus aureus X400. The assay is classed as cell-based. Particulars: Staphylococcus aureus X400, methicillin-resistant strain, agar dilution.
Assay [16] deals with Pasteurella hemolytica 22C. The experiment in a line: MIC, broth-dilution microtiter test, Pasteurella hemolytica 22C. The class given is cell-based. Particulars: Pasteurella hemolytica 22C, broth-dilution microtiter.
Description: as §2

The subject of the next assay is Streptococcus bovis 80. The experiment in a line: MIC, broth-dilution microtiter test, Streptococcus bovis 80. The assay is classed as cell-based.
Description: as §2

The test system of assay [17] is Pasteurella multocida. The experiment in a line: Oral (gavage) treatment of Pasteurella multocida-infected chicks. The class given is in vivo, one-day-old chicks. Here is the method: as §1

Converted amounts (≈) assume the structure as drawn. Like-named read-outs stand apart in the source and are kept apart here. A value given as a limit tells only on which side of the number the result lay.

`CCC1OC(=O)CC(O)C(C)C(OC2OC(C)C(O)C(N(C)C)C2O)C(CCS(=O)(=O)c2ccc(C)cc2)CC(C)C(=O)C=CC(C)=CC1COC1OC(C)C(O)C(OC)C1OC` (stereo not drawn) [Compound 46, 20-DH-DO-20-(p-Toluenesulfonyl)desmycosin]: the MIC turned out to be 8 µg/mL (≈ 8.77 µM) in assay [1]; 0.25 µg/mL (≈ 0.274 µM) in [2] (Staphylococcus aureus V41, penicillin-resistant strain, agar dilution); 8 µg/mL (≈ 8.77 µM) in the assay on Streptococcus Group 9960; 4 µg/mL (≈ 4.39 µM) in assay [4]; 0.39 µg/mL (≈ 0.428 µM) in the assay on Staphylococcus aureus (broth-dilution microtiter); 1 µg/mL (≈ 1.1 µM) in [6]. Further, the MIC in assay [7] (Staphylococcus epidermidis EPI2, agar dilution) stood at 0.12 µg/mL (≈ 0.132 µM); in assay [8] (Streptococcus pneumoniae Park I, agar dilution), 1 µg/mL (≈ 1.1 µM); in assay [9], 0.25 µg/mL (≈ 0.274 µM); with Mycoplasma gallisepticum (Mycoplasma gallisepticum, broth-dilution microtiter), 0.19 µg/mL (≈ 0.208 µM); in [10], 0.25 µg/mL (≈ 0.274 µM); in [11] (agar dilution) it was 8 µg/mL (≈ 8.77 µM). Moreover, the MIC in [12] came to 12.5 µg/mL (≈ 13.7 µM); against Mycoplasma hyopneumoniae it was 12.5 µg/mL (≈ 13.7 µM); in the assay on Mycoplasma hyorhinis (Mycoplasma hyorhinis, broth-dilution microtiter) it was 50 µg/mL (≈ 54.8 µM); in assay [13] it was 0.25 µg/mL (≈ 0.274 µM); in [14], 12.5 µg/mL (≈ 13.7 µM); against Mycoplasma synoviae (Mycoplasma synoviae, broth-dilution microtiter), 0.78 µg/mL (≈ 0.855 µM). Besides, the MIC in assay [15] turned out to be 0.25 µg/mL (≈ 0.274 µM); in [16], 12.5 µg/mL (≈ 13.7 µM); against Streptococcus bovis 80 (Streptococcus bovis 80, broth-dilution microtiter), 6.25 µg/mL (≈ 6.85 µM). Moreover, in the assay with Pasteurella multocida [3], the “Number of Deaths/Number Treated” value is 0/10. Besides, in assay [5] (oral), the “ED50, Oral” value is reported as > 50 mg/kg × 2. The “ED50, Subcutaneous” value in [5] (subcutaneous) was determined as 4.2 mg/kg × 2.

The term ED50 denotes the midpoint of the dose-response relation. Consider `CCOC(=O)C1CSC(CC2CC(C)C(=O)C=CC(C)=CC(COC3OC(C)C(O)C(OC)C3OC)C(CC)OC(=O)CC(O)C(C)C2OC2OC(C)C(O)C(N(C)C)C2O)N1` (stereo not drawn) [Compound 76], for which the MIC came to 466 µg/mL (≈ 516 µM) in assay [1] (read-out: MIC); 0.5 µg/mL (≈ 0.554 µM) in [2] (Staphylococcus aureus, V41); 0.78 µg/mL (≈ 0.864 µM) in the assay with Staphylococcus aureus; 0.53 µg/mL (≈ 0.587 µM) in assay [6] (read-out: MIC); 0.25 µg/mL (≈ 0.277 µM) in assay [7] (Staphylococcus epidermidis, EPI2); 0.25 µg/mL (≈ 0.277 µM) in [8] (Streptococcus pneumoniae). The MIC in the assay with Mycoplasma gallisepticum (Mycoplasmoides gallisepticum) was found to be 1.56 µg/mL (≈ 1.73 µM); in assay [10] (read-out: MIC), 0.51 µg/mL (≈ 0.565 µM); in [11] (read-out: MIC) it was 3250 µg/mL (≈ 3600 µM); in assay [12] (read-out: MIC), 25 µg/mL (≈ 27.7 µM); in the assay on Mycoplasma hyopneumoniae (Mesomycoplasma hyopneumoniae, read-out: MIC), 0.19 µg/mL (≈ 0.21 µM); in the assay on Mycoplasma hyorhinis (Mycoplasma), 50 µg/mL (≈ 55.4 µM). Besides, the MIC in assay [13] (read-out: MIC) turned out to be 0.51 µg/mL (≈ 0.565 µM); in [14] (read-out: MIC) it was 25 µg/mL (≈ 27.7 µM); against Mycoplasma synoviae (Mycoplasmopsis synoviae), 3.12 µg/mL (≈ 3.45 µM); in assay [15] (read-out: MIC), 2400 µg/mL (≈ 2660 µM); in assay [16] (read-out: MIC), 25 µg/mL (≈ 27.7 µM); in the assay with Streptococcus bovis 80 (Streptococcus equinus, 80) it was 3.12 µg/mL (≈ 3.45 µM). For the same molecule, the “Number of Deaths/Number Treated” value with Pasteurella multocida [3] was 3/10. Moreover, the ED50 in [5] (C203, sc, subcutaneous, read-out: ED50, Subcutaneous) amounted to 4.8 mg/kg; in assay [5] (C203, oral, read-out: ED50, Oral), 17 mg/kg. For the same molecule, the “Number of Deaths/Number tested” value with Pasteurella multocida [17] (0.5 g/gal equivalent) is recorded as 3/10; in the assay with Pasteurella multocida [17] (1.0 g/gal equivalent, 13/20 infected nonmedicated chicks died in this test), 4/10; in the assay with Pasteurella multocida [17] (2.0 g/gal equivalent, 11/20 infected nonmedicated chicks died in this test) it was 4/10.

Values taken from patent US4443436A, “C-20-Modified macrolide derivatives of the macrolide antibiotics tylosin, desmycosin, macrocin, and lactenocin” (Eli Lilly and Company, priority 1982, dated 1984).
